Measurements reported in patent US9340532B2, “Methods and compositions for inhibiting CNKSR1” (PHUSIS THERAPEUTICS, INC., priority 2012, dated 2016).
Where “and” joins values, the source holds several entries; their conditions need not be identical. Identical values can stand only once.

Columns and labels:
[1] = Mouse pharmacokinetics (iv); assay type: in vivo
[2] = system: H226 (KRAS wildtype cell line); test: Proliferation Assay H226; assay type: cell-based; conditions: Homo sapiens, NCI-H226, n = 1
Outline: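 Cells plated 2000 per well, allowed 24 h to attach, then exposed 72 h to agents (0-100 μM for isogenic lines; 0.01 to 50 μM for the RPMI 1640/10% FBS-cultured 30-line NSCLC panel). MTS read at 490 nm after 2 h, normalized to no-cell and no-drug controls; IC50 from curve fitting.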

[3] = Pharmacokinetics after oral administration; assay type: in vivo, mice; conditions: for elimination half life: oral, mice
Method: In order to understand better the reasons for the antitumor activity of compound #7 pharmacokinetic studies were conducted. […] Following oral administration in vivo plasma concentrations of the parent compound were low, about 3 μg/ml (7 μM) whereas the de-esterified acid form (compound 8) was present at high peak concentrations of around 50 μg/ml (128 μM). When compound 8 was administered orally to mice at the same dose even higher peak concentrations of 90 μg/ml (230 μM) were achieved.

rHuman carboxyesterase 1 = biological target: T1, rHuman carboxyesterase 1 (Homo sapiens, UniProt P23141); test: Stability with carboxyesterase 1; assay type: in vitro ADME; conditions: rHuman carboxyesterase 1 24 U/ml, pH 7.4, 37° C.
T1 sequence (P23141 18-567): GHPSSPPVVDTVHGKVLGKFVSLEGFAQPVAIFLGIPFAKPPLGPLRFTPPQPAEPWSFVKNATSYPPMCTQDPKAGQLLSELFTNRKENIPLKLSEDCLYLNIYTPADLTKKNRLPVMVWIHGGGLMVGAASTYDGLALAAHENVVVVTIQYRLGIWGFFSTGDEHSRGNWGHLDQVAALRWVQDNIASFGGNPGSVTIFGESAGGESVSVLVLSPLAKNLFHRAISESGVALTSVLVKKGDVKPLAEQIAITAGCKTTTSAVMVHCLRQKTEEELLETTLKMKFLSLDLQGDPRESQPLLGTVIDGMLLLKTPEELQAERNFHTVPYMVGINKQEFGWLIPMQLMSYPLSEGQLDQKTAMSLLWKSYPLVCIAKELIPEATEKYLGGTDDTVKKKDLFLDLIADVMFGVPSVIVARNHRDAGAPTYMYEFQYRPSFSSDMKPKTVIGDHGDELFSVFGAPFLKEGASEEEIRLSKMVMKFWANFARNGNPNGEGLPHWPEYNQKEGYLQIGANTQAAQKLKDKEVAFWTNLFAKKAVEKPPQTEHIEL

wt-KRAS NSCLC cell lines = test: Screening against NSCLC cell line panel, wt-KRAS lines; assay type: cell-based; conditions: Table 6, mean of 3 wt-KRAS lines; read-out: NSCL cell line cytotoxicity IC50 wt-KRAS
Method: The isogenic KRAS lines harboring G12D, G12C, and G12V were obtained from Horizon Discovery labs on a one year lease. These cells were cultured in McCoys media with 10% FBS to 80% confluency. Cells were then released from flasks via trypsinization and plated into 96-well plates at an initial density range of 2000 cells per well. Cells were allowed 24 hours to attach, and then the agents were added to the culture media at a range of concentrations from 0-100 μM. Cells were incubated for 72 hours with the drugs, and then viability was assessed using an MTS viability assay. Cells were exposed to MTS reagent (Promega) dissolved in PBS (Hyclone) at a concentration of 200 μL reagent/mL media for 2 hours. Absorbance was then read at 490 nm, and viability was expressed as a percentage normalized between the negative control (no cells plated) and the condition of cells with no drug added (100% viability) normalized as the upper limit of viability.
Our panel of 30 cell lines and an extensive characterization were obtained from Dr. John Minna (UTSW). All cell lines were cultured in RPMI 1640 with 10% FBS. Cells were treated with concentrations of agents at concentrations 0.01 to 50 μM and evaluated as described above. IC50's were determined using Excelfit.

PH-domain of AKT = biological target: T2, PH-domain of AKT (Homo sapiens, UniProt P31749); test: SPR binding to expressed PH-domain of AKT
T2 construct: made in house
Method: In embodiments, the binding of identified compounds to the crystal structures of other PH-domain signaling proteins, AKT, PDPK1, Btk, and Tiam1 can be predicted. In such embodiments, the Kds exceed about 100 μM. In other embodiments, SPR can measure the binding of identified compounds to the expressed PH-domains of AKT, PDPK1 and Tiam1. […] Thus, the identified compounds appear have, at least, about 50 to about 100 fold selectivity for CNKSR1 compared to the other PH-domains studied.
A commercially available docking package, GOLD (GOLD [3.2], CCDC: Cambridge, UK, 2007) was used to evaluate the docking of compounds 1-7 into the binding pocket, see e.g. Table 5. Other docking was performed using modeling algorithms with state-of-the-art commercial drug discovery software (Schrodinger suite). GLIDE was chosen as the docking algorithm used to select and optimize compounds, providing a GlideScore as a rough estimate of binding affinity that was used to rank and select the best compounds. Additionally, ligand-based approaches provided an alternative to structure based drug discovery. Ligand-based virtual screening methodologies can take into account shape and electrostatics (like ROCS) and the pharmacophoric features (acceptor, donor, hydrophobic, aromatic, etc.) of its functional groups. […]

AKT1 PH-domain = biological target: T3, AKT1 PH-domain (Homo sapiens, UniProt P31749); test: SPR binding assay (Biacore T100), AKT1 PH-domain; conditions: Table 6; read-out: AKT KD
T3 construct: The PH-domain His-fusion proteins (CNK1 and AKT1) were expressed and immobilized on a NTA chip; made in house
Outline: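 His-tagged AKT1 PH domain immobilized on NTA chip to ≤10,000 RU, Biacore T100. Small-molecule analytes injected at 50 μM to 0.010 μM, 30 μL/min, with 1-5% (v/v) DMSO in samples and running buffer.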

T3 sequence (P31749 5-108 limits assumed): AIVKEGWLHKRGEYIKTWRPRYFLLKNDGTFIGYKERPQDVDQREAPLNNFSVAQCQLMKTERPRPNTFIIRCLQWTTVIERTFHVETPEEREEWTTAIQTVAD
T2 sequence (P31749 5-108 limits assumed): as above

- t1/2β [1]: 3 UN min
- IC50 [2]: > 100 µM
- plasma concentration of the parent compound ([3]; compound #7 orally 200 mg/kg, 200 mg/kg): about 3 μg/ml and ~7 μM
- elimination half life [3]: 13 h
- elimination half life ([3]; listed as #7): 6 h
- metabolism in vivo to the acid metabolite ([3]; orally 200 mg/kg, FIG. 4B): rapidly de-esterified
- Half life (rHuman carboxyesterase 1): 0.317 h
- SPR binding to PH-domain of AKT (PH-domain of AKT): No measurable binding
- Kd (AKT1 PH-domain): 17.3 µM
SMILES: CCOC(=O)Cc1nn(Cc2nc(-c3ccc(C)cc3)cs2)c(=O)c2ccccc12 [Compound 7]
- IC50 (wt-KRAS NSCLC cell lines): > 100 µM
